# From ChEMBL document CHEMBL1201862, “PubChem BioAssay data set” (2004)
# Counter-ions that a name gives are not always drawn. Activity calls are given as the source filed them.
# Assays:
# [1] = target: Serine/threonine-protein phosphatase (Candida dubliniensis (strain CD36 / CBS 7987 / NCPF 3949 / NRRLY-17841) (Yeast), UniProt B9W6M3); test: calcineurin pathway inhibitors in yeast reporter, dose response, S. cerevisiae, CDRE-lacZ, luminescence, secondary (AID 2388); assay type: functional, cell-based;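 further: yeast reporter cells carrying a calcineurin-responsive lacZ construct stimulated with calcium chloride; luminescent beta-galactosidase reporter signal in whole cells rather than isolated phosphatase activity; potency for inhibition where a drop in reporter signal means calcineurin blockade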
# Serine/threonine-protein phosphatase, sequence (B9W6M3 whole entry): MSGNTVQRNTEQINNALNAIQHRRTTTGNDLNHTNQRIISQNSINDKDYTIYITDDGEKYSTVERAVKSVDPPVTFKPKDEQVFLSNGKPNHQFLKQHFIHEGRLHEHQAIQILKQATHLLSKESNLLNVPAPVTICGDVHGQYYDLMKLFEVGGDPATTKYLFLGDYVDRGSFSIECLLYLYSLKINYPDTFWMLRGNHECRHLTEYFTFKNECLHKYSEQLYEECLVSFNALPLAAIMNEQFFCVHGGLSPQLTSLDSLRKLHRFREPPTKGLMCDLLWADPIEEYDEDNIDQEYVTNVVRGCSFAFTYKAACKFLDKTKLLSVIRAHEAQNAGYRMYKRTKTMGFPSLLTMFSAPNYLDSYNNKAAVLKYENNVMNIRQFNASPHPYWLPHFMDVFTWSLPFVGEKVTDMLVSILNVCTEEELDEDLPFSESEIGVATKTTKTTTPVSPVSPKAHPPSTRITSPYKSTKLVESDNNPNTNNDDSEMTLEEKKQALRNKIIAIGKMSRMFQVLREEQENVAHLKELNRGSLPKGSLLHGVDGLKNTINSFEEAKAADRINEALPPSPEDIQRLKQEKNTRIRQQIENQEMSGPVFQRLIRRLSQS
# [2] = C. albicans growth with fluconazole, confirmation, fluorescence, retest (AID 2467); assay type: functional, cell-based
# [3] = target: ATP-dependent molecular chaperone HSP82 (Candida albicans (strain WO-1) (Yeast), UniProt C4YTQ8); test: loss of DOC-induced GRE-beta-galactosidase reporter signal, dose response, Hsp90 inhibitor project, S. cerevisiae, luminescence (AID 2400); assay type: functional, cell-based;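 further: beta-galactosidase luminescence from glucocorticoid response element reporter as proxy for Hsp90 function; inhibitor potency where signal loss means Hsp90 inhibition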
# ATP-dependent molecular chaperone HSP82, sequence (C4YTQ8 whole entry): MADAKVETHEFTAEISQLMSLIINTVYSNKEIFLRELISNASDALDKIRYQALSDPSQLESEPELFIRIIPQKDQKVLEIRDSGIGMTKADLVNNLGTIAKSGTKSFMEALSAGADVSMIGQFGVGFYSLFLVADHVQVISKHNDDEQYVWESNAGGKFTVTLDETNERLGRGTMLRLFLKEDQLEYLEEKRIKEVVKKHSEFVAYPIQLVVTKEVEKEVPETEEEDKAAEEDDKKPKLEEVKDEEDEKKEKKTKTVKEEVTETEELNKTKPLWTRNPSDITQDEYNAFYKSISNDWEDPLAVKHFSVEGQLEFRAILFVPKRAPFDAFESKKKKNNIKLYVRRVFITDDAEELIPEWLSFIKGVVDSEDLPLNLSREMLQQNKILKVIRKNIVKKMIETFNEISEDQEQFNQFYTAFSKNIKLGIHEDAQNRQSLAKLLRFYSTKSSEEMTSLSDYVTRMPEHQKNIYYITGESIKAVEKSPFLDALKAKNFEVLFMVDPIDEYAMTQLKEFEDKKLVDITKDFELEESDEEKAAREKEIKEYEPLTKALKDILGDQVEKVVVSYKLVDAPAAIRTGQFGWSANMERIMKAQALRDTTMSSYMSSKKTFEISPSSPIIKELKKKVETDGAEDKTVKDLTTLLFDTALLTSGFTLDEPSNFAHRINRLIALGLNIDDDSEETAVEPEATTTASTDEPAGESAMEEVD
# [4] = NIH-3T3 fibroblast cytotoxicity, dose response, cytotoxicity control, cell-based, fluorescence, Alamar Blue, secondary assay (AID 2327); assay type: functional;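 further: NIH-3T3 mouse fibroblasts cultured with fluconazole at 8 µg/mL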
# [5] = target: Paired box protein Pax-8 (Homo sapiens, UniProt Q06710); test: inhibitors of PAX8-driven TPO luciferase reporter, dose response, RMG-I cells, cherry-pick (AID 687027); assay type: functional, cell-based;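 further: luciferase reporter driven by Pax8 target thyroperoxidase promoter measured by SteadyGlo luminescence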
# Paired box protein Pax-8, sequence (Q06710 whole entry): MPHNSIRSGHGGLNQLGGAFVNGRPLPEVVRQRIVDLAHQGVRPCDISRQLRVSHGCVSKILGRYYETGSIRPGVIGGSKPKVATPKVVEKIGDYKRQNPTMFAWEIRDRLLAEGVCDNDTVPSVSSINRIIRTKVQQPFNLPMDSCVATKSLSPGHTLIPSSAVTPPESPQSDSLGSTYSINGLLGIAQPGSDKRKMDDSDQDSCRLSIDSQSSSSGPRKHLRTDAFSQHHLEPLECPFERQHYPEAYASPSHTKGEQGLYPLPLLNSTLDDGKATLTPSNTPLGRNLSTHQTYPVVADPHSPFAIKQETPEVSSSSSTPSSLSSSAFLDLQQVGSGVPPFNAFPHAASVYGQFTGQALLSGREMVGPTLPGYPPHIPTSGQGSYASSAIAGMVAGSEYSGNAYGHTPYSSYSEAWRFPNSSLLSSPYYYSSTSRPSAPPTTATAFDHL
# [6] = system: Streptococcus sp. 'group A'; test: growth inhibition of control SK(-) GAS strain, dose response, counter-screen for streptokinase expression inhibitor project, luminescence, kanamycin, BacTiterGlo, confirmation (AID 1900); assay type: functional, organism-based; settings: Streptococcus sp. 'group A'
# [7] = target: T1, Kappa-type opioid receptor (Homo sapiens, UniProt P41145); assay type: functional
# T1 sequence (P41145 whole entry): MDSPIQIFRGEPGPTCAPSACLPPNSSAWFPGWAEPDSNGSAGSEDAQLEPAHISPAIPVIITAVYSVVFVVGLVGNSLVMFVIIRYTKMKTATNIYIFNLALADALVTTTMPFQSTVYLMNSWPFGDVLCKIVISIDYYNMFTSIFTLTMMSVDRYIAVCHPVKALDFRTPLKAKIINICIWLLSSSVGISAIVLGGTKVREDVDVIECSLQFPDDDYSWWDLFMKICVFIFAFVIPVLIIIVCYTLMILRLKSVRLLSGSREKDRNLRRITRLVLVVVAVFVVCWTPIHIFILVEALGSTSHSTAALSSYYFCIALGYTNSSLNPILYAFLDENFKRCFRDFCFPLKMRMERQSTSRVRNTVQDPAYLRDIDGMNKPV
# [8] = target: T2, Streptokinase A (Streptococcus pyogenes serotype M1, UniProt P10520); test: S. pyogenes streptokinase expression inhibitors, potency, dose response, plasminogen activation absorbance, OD405 (AID 1914); assay type: functional, Streptococcus pyogenes M1 GAS;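 further: secreted streptokinase activity via plasminogen activation per viability signal from cell pellet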
# T2 sequence (P10520 whole entry): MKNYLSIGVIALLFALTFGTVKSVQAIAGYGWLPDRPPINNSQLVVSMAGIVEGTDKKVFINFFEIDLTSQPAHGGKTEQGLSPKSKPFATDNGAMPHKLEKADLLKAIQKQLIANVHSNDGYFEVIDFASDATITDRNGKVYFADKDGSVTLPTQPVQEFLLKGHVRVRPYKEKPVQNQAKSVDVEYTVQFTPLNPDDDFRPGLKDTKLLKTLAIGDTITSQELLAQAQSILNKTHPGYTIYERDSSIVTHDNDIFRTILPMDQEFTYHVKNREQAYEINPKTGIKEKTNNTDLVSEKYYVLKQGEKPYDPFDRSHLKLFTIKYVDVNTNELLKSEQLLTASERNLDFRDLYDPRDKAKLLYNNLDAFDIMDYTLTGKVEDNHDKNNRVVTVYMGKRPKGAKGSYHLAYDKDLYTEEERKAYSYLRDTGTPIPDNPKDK
# [9] = target: Beta-galactosidase (Escherichia coli, UniProt Q8VNN2); assay type: functional
# Beta-galactosidase, sequence (Q8VNN2 whole entry): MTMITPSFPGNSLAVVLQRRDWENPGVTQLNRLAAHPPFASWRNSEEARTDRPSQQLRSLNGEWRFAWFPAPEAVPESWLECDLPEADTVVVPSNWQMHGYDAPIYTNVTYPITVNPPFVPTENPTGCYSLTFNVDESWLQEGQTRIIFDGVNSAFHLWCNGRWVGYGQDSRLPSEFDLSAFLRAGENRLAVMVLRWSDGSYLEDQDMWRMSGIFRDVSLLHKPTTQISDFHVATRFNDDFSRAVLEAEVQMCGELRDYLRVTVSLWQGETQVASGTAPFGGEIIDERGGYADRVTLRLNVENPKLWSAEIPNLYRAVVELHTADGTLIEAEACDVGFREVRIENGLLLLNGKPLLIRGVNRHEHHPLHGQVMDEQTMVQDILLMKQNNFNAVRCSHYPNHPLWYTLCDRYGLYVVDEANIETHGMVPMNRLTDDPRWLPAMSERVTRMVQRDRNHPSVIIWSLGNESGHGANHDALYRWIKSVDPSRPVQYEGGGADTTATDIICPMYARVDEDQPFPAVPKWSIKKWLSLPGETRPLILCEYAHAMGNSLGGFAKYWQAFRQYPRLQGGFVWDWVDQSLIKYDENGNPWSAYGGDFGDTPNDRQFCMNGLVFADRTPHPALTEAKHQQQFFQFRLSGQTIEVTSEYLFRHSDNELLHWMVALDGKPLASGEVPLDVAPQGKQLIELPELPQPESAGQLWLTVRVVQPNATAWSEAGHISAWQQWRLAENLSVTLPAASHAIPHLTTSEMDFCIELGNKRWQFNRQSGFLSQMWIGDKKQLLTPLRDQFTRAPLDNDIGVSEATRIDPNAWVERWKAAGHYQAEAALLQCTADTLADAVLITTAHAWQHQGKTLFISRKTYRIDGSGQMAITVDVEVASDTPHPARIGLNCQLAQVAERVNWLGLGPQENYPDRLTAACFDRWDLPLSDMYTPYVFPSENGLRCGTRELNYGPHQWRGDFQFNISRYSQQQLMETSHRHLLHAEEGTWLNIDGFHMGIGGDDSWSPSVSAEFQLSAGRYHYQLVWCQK
# [10] = cells; assay type: functional, cell-based
# [11] = cells; assay type: functional, cell-based; remark: listed apart in the source
# [12] = system: Streptococcus; test: Group A Streptococcus viability loss, dose response, counter-screen for streptokinase expression inhibitor project, luminescence, BacTiterGlo (AID 1915); assay type: functional, organism-based; settings: Streptococcus;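 further: potency for reduction of bacterial viability or growth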
# [13] = target: Nonstructural protein 1 (Influenza A virus, UniProt Q194T2); assay type: functional, Influenza A virus (A/California/07/2009(H1N1))
# Nonstructural protein 1, sequence (Q194T2 whole entry): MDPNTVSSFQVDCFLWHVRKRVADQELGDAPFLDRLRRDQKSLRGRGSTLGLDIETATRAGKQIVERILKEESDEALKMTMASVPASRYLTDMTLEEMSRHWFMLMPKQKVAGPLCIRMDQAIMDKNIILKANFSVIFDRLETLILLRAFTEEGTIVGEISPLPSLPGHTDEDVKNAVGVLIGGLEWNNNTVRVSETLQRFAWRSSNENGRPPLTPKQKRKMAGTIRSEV
# [14] = target: T1, Kappa-type opioid receptor; assay type: functional; remark: listed apart in the source
# [15] = cytotoxicity in HEK-293T cells, dose response, cytotoxicity control for TCR NF-kB inhibitor project, luminescence, T-cell screen hits (AID 489026); assay type: functional, cell-based;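 further: cells exposed to compound about 14 hours before the viability readout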
# [16] = system: HEK293; test: inhibitors of LMP1-driven NF-kB reporter, dose response, cell-based, HEK293, luciferase, cherry-pick (AID 588343); assay type: functional; settings: Homo sapiens
# [17] = system: INS1; test: beta cell apoptosis inhibitors, cytokine rescue, dose response, luminescence, retest (AID 449756); assay type: functional, cell-based; settings: Rattus norvegicus;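 further: cell death triggered by IL-1 beta plus TNF-alpha plus IFN-gamma mixture; protective hits raise ATP signal compared with cytokine alone wells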
# [18] = microbe, parasite or virus in culture; assay type: functional; settings: Mycobacterium tuberculosis
# [19] = target: T3, Endoribonuclease toxin MazF (Escherichia coli K-12, UniProt P0AE70); test: fluorescent RNA oligo signal without MazF, dose response, counter-screen for MazEF activator project, biochemical, fluorescence, single-stranded RNase substrate (AID 588502); assay type: functional
# T3 sequence (P0AE70 whole entry): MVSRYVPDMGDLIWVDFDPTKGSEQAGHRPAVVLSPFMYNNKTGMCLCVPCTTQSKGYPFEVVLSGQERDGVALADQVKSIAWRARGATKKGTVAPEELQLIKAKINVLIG
# [20] = target: T3, Endoribonuclease toxin MazF; test: MazF toxin RNase activators, dose response, biochemical, fluorescence, single-stranded RNA substrate, uHTS hits (AID 588481); assay type: functional
# [21] = target: Dual specificity tyrosine-phosphorylation-regulated kinase 1A (Rattus norvegicus, UniProt Q63470); assay type: biochemical, Homo sapiens
# [22] = target: Dual specificity protein kinase CLK1 (Homo sapiens, UniProt P49759); test: CLK1 kinase inhibitors, off-target check, dose response, selectivity assay for Dyrk1A inhibitor project, biochemical, cherry-picked samples (AID 588811)
# Dual specificity protein kinase CLK1, sequence (P49759 whole entry, the tested form may be a part): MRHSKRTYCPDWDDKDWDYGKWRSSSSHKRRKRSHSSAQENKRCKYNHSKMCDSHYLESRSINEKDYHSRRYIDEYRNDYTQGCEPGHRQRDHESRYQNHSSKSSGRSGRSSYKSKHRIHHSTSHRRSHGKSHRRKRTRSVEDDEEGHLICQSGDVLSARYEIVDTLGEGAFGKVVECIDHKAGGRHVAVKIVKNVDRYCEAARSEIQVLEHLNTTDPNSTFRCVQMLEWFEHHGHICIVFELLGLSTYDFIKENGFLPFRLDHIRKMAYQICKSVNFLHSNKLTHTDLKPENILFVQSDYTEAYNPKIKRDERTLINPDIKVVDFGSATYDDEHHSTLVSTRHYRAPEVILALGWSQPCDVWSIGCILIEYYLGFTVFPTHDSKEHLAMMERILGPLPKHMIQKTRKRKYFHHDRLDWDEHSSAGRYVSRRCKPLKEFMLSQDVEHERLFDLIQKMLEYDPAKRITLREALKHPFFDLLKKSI
# [23] = target: T4, Hexokinase HKDC1 (Homo sapiens, UniProt Q2TB90); test: SAR analysis of small molecule inhibitors of hexokinase domain containing I (HKDC1). [Related pubchem assays (depositor defined):AID493160, AID493190]; assay type: functional
# T4 sequence (Q2TB90 whole entry): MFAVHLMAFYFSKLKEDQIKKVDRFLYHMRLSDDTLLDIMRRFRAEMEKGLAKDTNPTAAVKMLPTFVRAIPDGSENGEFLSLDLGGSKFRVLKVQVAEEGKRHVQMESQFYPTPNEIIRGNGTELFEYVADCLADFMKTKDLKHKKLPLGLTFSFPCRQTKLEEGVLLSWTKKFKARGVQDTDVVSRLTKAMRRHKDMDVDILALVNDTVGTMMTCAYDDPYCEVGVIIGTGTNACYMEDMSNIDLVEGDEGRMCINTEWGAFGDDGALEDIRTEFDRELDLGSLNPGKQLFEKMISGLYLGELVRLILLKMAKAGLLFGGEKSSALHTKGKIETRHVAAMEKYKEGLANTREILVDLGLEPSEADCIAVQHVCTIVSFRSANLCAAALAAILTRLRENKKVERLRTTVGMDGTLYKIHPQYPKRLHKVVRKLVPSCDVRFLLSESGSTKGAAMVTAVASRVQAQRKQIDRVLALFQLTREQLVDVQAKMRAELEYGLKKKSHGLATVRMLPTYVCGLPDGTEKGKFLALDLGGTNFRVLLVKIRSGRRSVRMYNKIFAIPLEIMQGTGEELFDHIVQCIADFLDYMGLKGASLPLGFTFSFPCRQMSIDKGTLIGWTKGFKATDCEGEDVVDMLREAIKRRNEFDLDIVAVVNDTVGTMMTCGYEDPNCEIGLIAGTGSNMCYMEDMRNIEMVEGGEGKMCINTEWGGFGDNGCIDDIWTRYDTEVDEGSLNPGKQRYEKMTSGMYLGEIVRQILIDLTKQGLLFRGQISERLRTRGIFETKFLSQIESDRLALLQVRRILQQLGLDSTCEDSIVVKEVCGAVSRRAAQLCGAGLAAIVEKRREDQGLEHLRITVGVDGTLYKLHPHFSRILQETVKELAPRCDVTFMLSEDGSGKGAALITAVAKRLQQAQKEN
# [24] = target: T5, Hexokinase-1 (Homo sapiens, UniProt P19367); test: SAR analysis of small molecule inhibitors of hexokinase domain containing I (HKDC1) in the hexokinase 1 selectivity assay. [Related pubchem assays (depositor defined):AID493160, AID493190]; assay type: functional
# T5 sequence (P19367 whole entry): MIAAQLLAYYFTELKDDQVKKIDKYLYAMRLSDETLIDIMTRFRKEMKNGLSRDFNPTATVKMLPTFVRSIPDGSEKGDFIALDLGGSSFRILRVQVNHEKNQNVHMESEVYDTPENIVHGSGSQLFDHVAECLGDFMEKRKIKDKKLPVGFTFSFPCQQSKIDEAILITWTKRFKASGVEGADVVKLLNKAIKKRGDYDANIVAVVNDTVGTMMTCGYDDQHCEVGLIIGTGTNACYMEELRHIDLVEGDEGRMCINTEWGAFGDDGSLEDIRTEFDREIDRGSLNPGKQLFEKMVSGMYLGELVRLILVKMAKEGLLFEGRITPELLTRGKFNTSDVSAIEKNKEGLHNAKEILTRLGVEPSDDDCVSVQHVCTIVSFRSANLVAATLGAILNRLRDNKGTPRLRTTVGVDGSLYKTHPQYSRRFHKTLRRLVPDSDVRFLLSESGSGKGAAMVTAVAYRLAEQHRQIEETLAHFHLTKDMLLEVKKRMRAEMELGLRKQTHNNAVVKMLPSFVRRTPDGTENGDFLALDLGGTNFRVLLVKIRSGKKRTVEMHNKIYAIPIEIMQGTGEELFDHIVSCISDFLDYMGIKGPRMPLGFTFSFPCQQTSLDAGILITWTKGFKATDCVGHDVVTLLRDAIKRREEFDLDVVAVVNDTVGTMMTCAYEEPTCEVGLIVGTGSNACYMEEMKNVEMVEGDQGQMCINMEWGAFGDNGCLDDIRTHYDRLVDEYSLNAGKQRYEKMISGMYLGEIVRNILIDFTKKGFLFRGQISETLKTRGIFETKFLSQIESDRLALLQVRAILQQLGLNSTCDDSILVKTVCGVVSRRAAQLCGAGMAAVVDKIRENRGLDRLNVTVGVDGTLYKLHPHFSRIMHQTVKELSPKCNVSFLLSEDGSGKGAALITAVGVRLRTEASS
# [25] = target: T6, Sentrin-specific protease 1 (Homo sapiens, UniProt Q9P0U3); test: Dose response confirmation of small molecule inhibitors of the catalytic domain of the SUMO protease, SENP1 in a FRET assay.; assay type: functional; settings: read-out: IC50_Mean
# T6 sequence (Q9P0U3 whole entry): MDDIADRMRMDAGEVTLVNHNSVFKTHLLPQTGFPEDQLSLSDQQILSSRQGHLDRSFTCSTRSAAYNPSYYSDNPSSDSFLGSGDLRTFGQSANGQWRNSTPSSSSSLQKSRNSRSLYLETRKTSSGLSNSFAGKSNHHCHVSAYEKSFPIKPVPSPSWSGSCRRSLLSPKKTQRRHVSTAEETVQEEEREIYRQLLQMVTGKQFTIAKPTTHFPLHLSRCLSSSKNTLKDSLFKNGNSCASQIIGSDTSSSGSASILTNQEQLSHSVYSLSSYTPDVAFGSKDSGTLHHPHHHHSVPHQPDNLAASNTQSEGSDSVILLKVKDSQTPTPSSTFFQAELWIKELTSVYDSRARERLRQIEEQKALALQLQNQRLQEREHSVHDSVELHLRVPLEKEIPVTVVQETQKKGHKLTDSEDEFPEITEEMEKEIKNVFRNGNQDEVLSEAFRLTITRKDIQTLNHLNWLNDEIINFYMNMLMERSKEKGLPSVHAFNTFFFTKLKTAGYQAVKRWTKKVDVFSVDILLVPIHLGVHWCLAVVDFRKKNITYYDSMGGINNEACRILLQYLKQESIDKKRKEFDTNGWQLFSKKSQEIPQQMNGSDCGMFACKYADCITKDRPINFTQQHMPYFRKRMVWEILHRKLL
# [26] = target: T6, Sentrin-specific protease 1; test: potency of human SENP1 inhibitors, dose response, biochemical, kinetic FRET (AID 651697); assay type: functional; settings: read-out: IC50_Mean
# [27] = target: Mu-type opioid receptor (Homo sapiens, UniProt P35372); assay type: functional, cell-based;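 further: U2OS cells with beta-arrestin recruitment to OPRM1 by beta-gal complementation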
# Mu-type opioid receptor, sequence (P35372 whole entry): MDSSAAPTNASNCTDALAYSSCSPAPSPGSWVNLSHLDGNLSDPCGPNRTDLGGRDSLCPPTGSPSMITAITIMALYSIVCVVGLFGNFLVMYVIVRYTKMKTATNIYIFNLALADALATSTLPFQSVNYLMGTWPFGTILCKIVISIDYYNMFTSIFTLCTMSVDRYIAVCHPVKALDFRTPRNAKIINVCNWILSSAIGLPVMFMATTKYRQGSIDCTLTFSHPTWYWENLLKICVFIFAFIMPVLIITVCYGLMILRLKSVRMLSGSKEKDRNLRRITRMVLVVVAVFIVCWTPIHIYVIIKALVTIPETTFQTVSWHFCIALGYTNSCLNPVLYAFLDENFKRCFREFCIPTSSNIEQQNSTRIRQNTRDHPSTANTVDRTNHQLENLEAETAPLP
# [28] = system: Escherichia coli; test: microbe, parasite or virus in culture
# [29] = target: 5-hydroxytryptamine receptor 2A (Mus musculus, UniProt P35363); assay type: functional, cell-based;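 further: CHO-K1 cells with tagged receptor and beta-arrestin; agonist potency measured as compound-induced activation of the receptor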
# 5-hydroxytryptamine receptor 2A, sequence (P35363 whole entry): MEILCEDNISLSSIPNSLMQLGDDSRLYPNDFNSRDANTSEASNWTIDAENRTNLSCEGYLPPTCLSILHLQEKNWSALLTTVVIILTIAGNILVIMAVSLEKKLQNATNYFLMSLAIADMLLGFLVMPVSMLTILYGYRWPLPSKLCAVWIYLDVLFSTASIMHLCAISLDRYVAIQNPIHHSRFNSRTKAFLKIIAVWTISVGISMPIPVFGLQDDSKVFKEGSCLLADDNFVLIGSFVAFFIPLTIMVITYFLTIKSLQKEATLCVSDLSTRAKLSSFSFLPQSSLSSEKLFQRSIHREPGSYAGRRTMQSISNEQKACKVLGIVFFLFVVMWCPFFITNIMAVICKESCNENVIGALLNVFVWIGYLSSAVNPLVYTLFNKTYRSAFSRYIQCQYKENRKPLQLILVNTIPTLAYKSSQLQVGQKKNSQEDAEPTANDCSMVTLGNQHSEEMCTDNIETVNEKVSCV
# [30] = system: Escherichia coli; test: microbe, parasite or virus in culture; remark: listed apart in the source
smiles,measurement,setting,value
Cc1cc(C(=O)Nc2sc3c(c2C#N)CCCC3)no1,EC50,[1],> 180 µM (inactive)
same,EC50,[2],2.21 µM (active)
same,EC50,[3],24.9 µM (active)
same,EC50,[4],> 160 µM (inactive)
C=CCNC(=S)N/N=C(\C)c1ccccn1,AC50,[5],< 0.26 µM (active)
same,EC50,[6],2 µM (active)
same,IC50,[7],> 32 µM
same,EC50,[8],> 150 µM (not active)
same,EC50,[9],> 31.5 µM (inactive)
same,EC50,[10],> 350 µM (not active)
same,EC50,[11],9.83 µM (active)
same,EC50,[12],> 150 µM (not active)
same,EC50,[1],> 180 µM (inactive)
same,IC50,[13],2.5 µM (active)
same,EC50,[2],0.146 µM (active)
same,IC50,[14],3.27 µM (active)
same,EC50,[3],> 150 µM (inactive)
same,IC50,[15],> 80 µM (inactive)
same,AC50,[16],0.493 µM (active)
same,AC50,[17],< 0.195 µM (active)
same,EC50,[4],40.7 µM (inconclusive)
same,CC50,[18],< 0.08 µM (active)
Cc1cc(C)n(-c2nc3ccccc3nc2Nc2ccc3[nH]c(O)nc3c2)n1,EC50,[19],> 99 µM (inactive)
same,EC50,[20],> 99 µM (inactive)
COc1ccc(-c2cc(NCCc3ccncc3)n3ncnc3n2)cc1,AC50,[21],> 120 µM (inactive)
same,AC50,[22],18.6 µM (active)
O=C(Nc1cccc(C(F)(F)F)c1)c1cccc(NC(=O)c2ccc3[nH]nnc3c2)c1,IC50,[23],> 80 µM (inactive)
same,IC50,[24],> 80 µM (inactive)
Cc1ccc2nc3sc(C(=O)NCc4ccco4)c(N)c3cc2c1,IC50,[25],7.17 µM (active)
same,EC50,[19],65.2 µM (inactive)
same,IC50,[26],4.66 µM (active)
same,EC50,[20],> 99 µM (inactive)
CN(C)[C@@H]1C(O)=C(C(N)=O)C(=O)[C@@]2(O)C(O)=C3C(=O)c4c(O)ccc(Cl)c4[C@@H](O)[C@H]3C[C@@H]12 [DEMECLOCYCLINE HYDROCHLORIDE],EC50,[27],92.5 µM (inactive)
same,AC50,[28],0.866 µM (active)
same,EC50,[29],13.7 µM (inactive)
same,AC50,[30],36 µM (active)
O=C(Nc1cccc(C(F)(F)F)c1)c1cccc(NC(=O)c2cccc3ccccc23)c1,IC50,[23],> 80 µM (inactive)
same,IC50,[24],> 80 µM (inactive)
